pEC50, pIC50: −log10 of the molar value.
Key:
influenza virus A H7N1 = conditions: cited from earlier work
[1] = system: influenza virus A/Puerto Rico/8/34 (H1N1); format: cell-based
influenza type B = conditions: cited from earlier work
influenza type A virus = conditions: cited from earlier work
HIV = conditions: read-out: EC50 anti-HIV activity; cited from earlier work
herpes virus = conditions: read-out: EC50 antiherpetic; cited from earlier work
Flu A H1N1 strain = conditions: cited from earlier work

In the case of “3-oxime of betulonic acid and L-leucine-28-amide”, the pEC50 (influenza virus A H7N1) is listed as 5.66 and the “suppression of influenza virus A H7N1” value (influenza virus A H7N1) is listed as 90%.
In the case of `CC(N)C12CC3CC(CC(C3)C1)C2` (stereo not drawn) [Rimantadine], the “SI, selectivity index CC50/IC50” value [1] was 5.
For `COC(=O)[C@]12CC[C@@H](C)[C@H](C)[C@H]1C1=CC[C@@H]3[C@@]4(C)CC[C@H](O)C(C)(C)[C@@H]4CC[C@@]3(C)[C@]1(C)CC2` [methyl ester of ursolic acid], the protection index (influenza type B) is given as 80% and the protection index (influenza type A virus) is given as 60%.
In the case of Alnincanone, the protection index (influenza type B) is given as 80% and the protection index (influenza type A virus) is given as 60%.
In the case of “Ethyl β-alaninate diamide 2,3 seco-lupane”, the pEC50 (HIV) is given as 5.29 and the pEC50 (herpes virus) is given as 5.39.
For echinocystic acid, the protection index (influenza type B) is given as 80% and the protection index (influenza type A virus) is given as 60%.
For “lupane 3,4-seco-3,28-bis-N,N-methylpiperazine-amide”, the pIC50 (Flu A H1N1 strain) is listed as 4.57.

— article PMC8894567 (The Journal of Antibiotics, 2022)
